Reference: publication PMC6009935 (Journal of Enzyme Inhibition and Medicinal Chemistry, 2017)

Molecular target: T1, KOR (Cavia porcellus, UniProt P41144)
T1 construct: b: performed in guinea pig whole brain membrane homogenates; from tissue; host or cells: guinea pig (LAL/HA/BR strain) whole brain membrane homogenate
Assay: Radioligand competition binding with [3H]HS665
Set-up: species or system guinea pig
Description: Tris-HCl, EGTA, NaCl, MgCl2 x 6H2O, GDP, the GTP analogue GTPγS, were purchased from Sigma-Aldrich (Budapest, Hungary). Fatty acid free bovine serum albumin (BSA) was purchased from Serva (Heidelberg, Germany). Naloxone was kindly provided by the company Endo Laboratories DuPont de Nemours (Wilmington, DE, USA). HS665 was provided by Schmidhammer’s group (University of Innsbruck, Austria). […]
purchased from Tocris Bioscience (Bristol, UK).
DMSO. All compounds were stored in 1 mM stock solution at -20 °C. The radiolabelled GTP analogue, [35S]GTPγS (specific activity: 1000 Ci/mmol) were purchased from Hartmann Analytic (Braunschweig, Germany). [3H]DAMGO (specific activity: 38.8 Ci/mmol),12 [3H]IleDelt II (specific activity: 19,6 Ci/mmol), [3H]WIN55,212-2 (specific activity: 13,1 Ci/mmol) and [3H]HS665 (specific activity: 36.62 Ci/mmol),3 were radiolabeled by the Laboratory of Chemical Biology group in BRC (Szeged, Hungary).
For membrane homogenate preparations male and female Wistar rats (250-300 g body weight) and male guinea pigs (~700 g body weight, LAL/HA/BR strain) were used. Rats were housed in the local animal house of BRC (Szeged, Hungary), while guinea pigs were housed in LAB-ÁLL Bt.
(Budapest, Hungary). All the animals were kept in a temperature controlled room (21-24 °C) under a 12:12 light and dark cycle and were provided with water and food ad libitum. All housing and experiments were conducted in accordance with the European Communities Council Directives (2010/63/EU) and the Hungarian Act for the Protection of Animals in Research (XXVIII.tv. 32.§).
The total number of animals as well as their suffering was minimized.
Rat and guinea pig brain membrane homogenate preparation for binding assays Rats and guinea pigs were decapitated and their brains were quickly removed. The brains were prepared for membrane preparation as previously described,4 and partly used for binding experiments and partly were further prepared for the [35S]GTPγS binding experiments. Briefly the brains were homogenized, centrifuged in ice-cold 50 mM Tris-HCl (pH 7.4) buffer and incubated at 37 °C for 30 min in a shaking water-bath. After incubation the centrifugation was repeated as described above and the final pellet was suspended in 50 mM Tris-HCl pH 7.4 buffer containing 0.32 M sucrose, and stored at -80 °C. For the [35S]GTPγS binding experiments the final pellet of rat […]
brain membrane homogenate was suspended in ice-cold TEM (Tris-HCl, EGTA, MgCl2) and stored at -80 °C for further use.
Radioligand competition binding experiments
Aliquots of frozen rat brain membrane homogenates were centrifuged (18 000 rpm, 20 min, 4 °C) to remove sucrose and the pellets were suspended in 50 mM Tris-HCl buffer (pH 7.4). Membranes containing 0.4-0.8 mg/mL of protein were incubated in a final volume of 1 mL in the presence of unlabeled 5, 10 and 9 in increasing concentrations (10-11-10-5 M) in the presence of the appropriate radioligand in ~1 nM concentrations at certain temperature and amount of time depending on the radioligand ([3H]DAMGO and [3H]IleDelt II: 35 °C for 45 min; [3H]HS665: 30 °C, 45 min; [3H]WIN55,212-2: 30 °C for 60 min). Experiments performed with [3H]HS665 where incubated […]
more kappa receptors than the rat brain), while the rest of the radioligands were incubated together with rat whole brain membrane homogenates. Additionally, in experiments performed with […]
binding was determined in the absence of unlabeled compounds. […]

SMILES | KOR binding affinity in words | Ki (guinea pig whole brain membrane homogenates, Cheng-Prusoff) [nM] | IC50 (guinea pig whole brain membrane homogenates, logarithm of IC50, negative sign printed, read-out: logIC50 ± S.E.M., [3H]HS665 (KOR) (converted)) [nM] | Selectivity ratio DOR/KOR (ratio of Ki values)
Cc1c(C(=O)NC2CCNCC2)nn(-c2ccc(Cl)cc2Cl)c1-n1cccc1 [Compound 5] | negligible |  |  | 
Cc1c(C(=O)NC2CCN(C(=O)[C@H](Cc3ccccc3)NC(=O)CNC(=O)[C@@H](C)NC(=O)[C@@H](N)Cc3ccc(O)cc3)CC2)nn(-c2ccc(Cl)cc2Cl)c1-n1cccc1 [Compound 9] | unexpected improvement of affinity | 170 | 263 | 2.61
